# Structures can show the parent of a compound that is named as a salt. Where two headings read alike, the source gives them in different places.
# Assays:
# [1] = Ionophore activity; conditions: larger number indicates weaker ionophore activity
# [2] = Caco-2 permeability; type: in vitro ADME; conditions: human
# [3] = test system: p53^R175H; experiment: Immunofluorescence with conformation-specific antibodies PAB1620/PAB240; type: cell-based
# [4] = target: Human Norepinephrine Transporter (Homo sapiens, UniProt P23975); experiment: CEREP safety screen, norepinephrine transporter; type: binding; conditions: 10 μM
# [5] = test system: p53 wild type and p53 null cell lines; experiment: Cell kill in p53 wild type and p53 null cell lines; type: cell-based; conditions: allele selectivity, Suppl. Figure S1
# [6] = test system: MDA-MB-468 (p53^R273H) tumors; experiment: Xenograft tumor assay, MDA-MB-468; type: in vivo, nude mice NCr nu/nu; conditions: non Zn-deficient mutation, Suppl. Figure S2
# [7] = cited from earlier work
# [8] = test system: Rat Sodium Channel site 2; experiment: CEREP safety screen, sodium channel site 2; type: binding; conditions: 10 μM
# [9] = NCr nu/nu nude, mouse, in vivo, ip
# [10] = test system: TOV-112D cells; experiment: Combination of C85 with γ-irradiation or etoposide, cell growth inhibition; type: cell-based; conditions: Homo sapiens, TOV112D, read-out: EC50, C85 only
# [11] = Hydrolytic stability in SGF and PBS; type: physicochemical; conditions: 6 h
# [12] = test system: H1299 cells (p53 null); experiment: Oxidative stress detection, CellROX Green, flow cytometry; type: cell-based; conditions: 0.75 μM compound, 24 h, relative to ZMC1
# [13] = target: Human hERG (Homo sapiens, UniProt Q12809); experiment: CEREP safety screen, hERG [3H]-dofetilide; type: binding; conditions: 10 μM
# [14] = read-out: KZn; order of magnitude, stated in Conclusions
# [15] = test system: TOV-112D (p53^R175H); experiment: Cell growth inhibition assay; type: cell-based; conditions: Homo sapiens, TOV112D, 72 h, read-out: EC50 TOV-112D
# Sequence of Human hERG (Q12809 whole entry): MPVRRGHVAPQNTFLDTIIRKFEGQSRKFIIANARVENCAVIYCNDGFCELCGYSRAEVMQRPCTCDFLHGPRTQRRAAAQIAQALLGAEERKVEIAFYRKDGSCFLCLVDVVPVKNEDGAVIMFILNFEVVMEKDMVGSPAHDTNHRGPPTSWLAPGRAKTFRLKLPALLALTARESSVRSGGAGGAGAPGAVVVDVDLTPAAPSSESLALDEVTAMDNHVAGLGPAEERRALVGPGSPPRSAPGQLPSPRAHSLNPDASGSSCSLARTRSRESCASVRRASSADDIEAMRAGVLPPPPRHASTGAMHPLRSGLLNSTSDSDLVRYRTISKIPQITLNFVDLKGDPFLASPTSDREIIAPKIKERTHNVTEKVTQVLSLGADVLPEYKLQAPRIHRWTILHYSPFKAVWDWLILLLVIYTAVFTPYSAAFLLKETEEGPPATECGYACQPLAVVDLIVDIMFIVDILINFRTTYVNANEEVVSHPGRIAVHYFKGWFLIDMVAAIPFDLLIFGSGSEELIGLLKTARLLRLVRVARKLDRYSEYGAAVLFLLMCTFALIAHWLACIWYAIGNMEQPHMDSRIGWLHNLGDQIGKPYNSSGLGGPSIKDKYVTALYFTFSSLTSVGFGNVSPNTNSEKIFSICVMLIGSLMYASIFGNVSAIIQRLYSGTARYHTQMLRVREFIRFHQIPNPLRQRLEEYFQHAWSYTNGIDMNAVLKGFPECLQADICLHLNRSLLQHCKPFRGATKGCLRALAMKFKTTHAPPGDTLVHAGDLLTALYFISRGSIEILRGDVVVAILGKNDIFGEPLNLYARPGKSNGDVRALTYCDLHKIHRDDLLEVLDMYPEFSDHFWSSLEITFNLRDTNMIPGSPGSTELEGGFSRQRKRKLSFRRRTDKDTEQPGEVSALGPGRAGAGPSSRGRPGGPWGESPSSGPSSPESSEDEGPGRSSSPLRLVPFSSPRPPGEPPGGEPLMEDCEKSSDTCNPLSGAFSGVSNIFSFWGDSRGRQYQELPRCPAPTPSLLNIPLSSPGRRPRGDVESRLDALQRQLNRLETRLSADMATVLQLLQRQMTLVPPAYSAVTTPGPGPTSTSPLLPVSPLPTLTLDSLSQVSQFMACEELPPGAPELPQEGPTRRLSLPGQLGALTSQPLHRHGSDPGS
# Sequence of Human Norepinephrine Transporter (P23975 whole entry): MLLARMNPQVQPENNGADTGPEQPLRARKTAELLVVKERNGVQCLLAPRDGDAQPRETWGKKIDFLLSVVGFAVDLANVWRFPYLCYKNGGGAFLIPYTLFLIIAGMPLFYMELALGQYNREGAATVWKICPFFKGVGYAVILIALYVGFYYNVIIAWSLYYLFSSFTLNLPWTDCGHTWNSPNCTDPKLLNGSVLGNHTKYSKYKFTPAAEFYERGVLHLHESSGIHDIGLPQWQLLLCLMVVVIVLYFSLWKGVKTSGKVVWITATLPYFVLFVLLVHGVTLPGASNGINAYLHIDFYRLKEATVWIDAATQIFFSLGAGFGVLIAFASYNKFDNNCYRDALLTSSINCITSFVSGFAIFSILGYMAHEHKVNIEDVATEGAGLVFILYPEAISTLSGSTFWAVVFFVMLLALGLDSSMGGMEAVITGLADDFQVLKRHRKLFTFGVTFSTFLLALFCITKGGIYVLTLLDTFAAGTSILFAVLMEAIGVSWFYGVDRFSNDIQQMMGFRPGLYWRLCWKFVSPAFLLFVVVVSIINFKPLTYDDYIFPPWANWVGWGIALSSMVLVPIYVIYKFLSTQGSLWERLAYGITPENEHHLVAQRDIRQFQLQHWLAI
SMILES,Ionophore Ji drug/Ji DMSO [1],"Papp at 90 min, 5 μM [2] [×10⁻⁶ cm/s]",Refolding p53^R175H → wild type [3],Refolding p53^R175H → wild type ([3]; listed as Cl),"Activity against the norepinephrine transporter, in words [4]",Cell kill in p53 wild type and p53 null cell lines [5],Tumor growth inhibition of p53^R273H tumors [6],Aqueous solubility [7],"Activity against the sodium channel, in words [8]",Well tolerated dose without significant weight loss [9],"EC50 ([10]; light or radiation study, 72 h) [nM]",EC50 [10] [nM],"Compound remaining ([11]; SGF pH 1–2, 37 °C) [%]","Compound remaining ([11]; SGF pH 1–2, room temperature) [%]",ROS (ROS/ZMC1 ROS) [12],"hERG inhibition, in words [13]",Kd [14] [nM],EC50 [15] [nM]
"C/C(=N\Nc1nc2ccccc2s1)c1ccccn1 [C1, (E)-2-(2-(1-(Pyridin-2-yl)ethylidene)hydrazinyl)benzo[d]thiazole]",11.6 -log[mol/m^2s],4.4 ± 0.1,induced a wild-type conformational change,YES,showed activity,almost no cell kill,did not inhibit the tumor growth,low aqueous solubility,showed activity,up to 30 mg/kg,,,,,,,,
"C/C(=N\Nc1nc2ccccc2n1CCN1CCC(F)(F)C1)c1ccccn1 [C85, (E)-1-(2-(3,3-Difluoropyrrolidin-1-yl)ethyl)-2-(2-(1-(pyridin-2-yl)ethylidene)hydrazineyl)-1H-benzo[d]imidazole HCl]",12.2 -log[mol/m^2s],,could induce a wild-type conformational change and YES,,,,,,,,710,570,> 82,> 92,0.8,potent hERG inhibition,,
"C/C(=N\NC(=S)N1CCC1)c1ccccn1 [ZMC1, (E)-N′-(1-(Pyridin-2-yl)ethylidene)azetidine-1-carbothiohydrazide, reference compound]",12.4 -log[mol/m^2s],15.6 ± 1.3,,,,,,,,,,,,,,,10,
"C/C(=N\Nc1nc2ccccc2n1CCN1CCCC1)c1ccccn1 [C69, (E)-2-(2-(1-(Pyridin-2-yl)ethylidene)hydrazineyl)-1-(2-(pyrrolidin-1-yl)ethyl)-1H-benzo[d]imidazole HCl]",11.6 -log[mol/m^2s],,YES,,showed activity,,,,showed activity,,,,,,1.2,strong hERG inhibition,,93
